From patent US20060188959A1, “Crystal structure of worm NitFhit reveals that a Nit tetramer binds tow Fhit dimers” (Thomas Jefferson University, priority 2000, published 2006) come the findings set out here.

What all share (type): biochemical, C. elegans
Assay [1] concerns the target T1, Fhit active site of NitFhit (Caenorhabditis elegans, UniProt O76463).
T1 construct: generated an NdeI site at the initiator codon and an XhoI site 3′ of the stop codon; made in house; host or cells: E. coli strain ER2566
T1 sequence (O76463 1-440): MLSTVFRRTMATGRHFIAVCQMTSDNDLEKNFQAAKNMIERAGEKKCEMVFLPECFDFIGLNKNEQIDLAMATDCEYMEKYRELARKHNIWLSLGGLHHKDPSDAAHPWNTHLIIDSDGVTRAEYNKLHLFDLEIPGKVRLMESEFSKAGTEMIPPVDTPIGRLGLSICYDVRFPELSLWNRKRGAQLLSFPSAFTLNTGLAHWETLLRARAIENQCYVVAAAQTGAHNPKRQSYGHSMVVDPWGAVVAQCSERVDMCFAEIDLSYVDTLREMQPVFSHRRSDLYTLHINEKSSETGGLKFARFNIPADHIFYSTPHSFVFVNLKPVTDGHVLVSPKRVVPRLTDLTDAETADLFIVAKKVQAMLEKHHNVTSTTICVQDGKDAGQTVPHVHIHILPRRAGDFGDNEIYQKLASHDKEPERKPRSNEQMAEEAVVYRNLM
Put plainly: Nonlabeled compounds as competitive inhibitors of ApppBODIPY hydrolysis.
Protocol: Assays of nonlabeled compounds as competitive inhibitors of ApppBODIPY hydrolysis were also performed as developed for human Fhit.

Assay [2] concerns the target T1, Fhit active site of NitFhit. In words: GpppBODIPY initial rate assay of the Fhit active site of NitFhit.
Assay [3] shares this target. Put plainly: ApppBODIPY substrate decay assay of the Fhit active site of NitFhit. As to conditions: ApppBODIPY as substrate; % of the activity of human Fhit.
[4] abbreviates: titration of nonlabeled compound into 1.5 μM ApppBODIPY assays, five competitor concentrations, read-out: Kl.
The mark [5] stands for this setting: initial rates, GpppBODIPY titrated 40 μM to 2.5 μM, 0.5 pmol enzyme.

Read-outs that look alike come from different tables or passages of the source.

Take `Nc1ncnc2c1ncn2[C@@H]1O[C@H](COP(=O)(O)OP(=O)(O)OP(=O)(O)OP(=O)(O)OP(=O)(O)OC[C@H]2O[C@@H](n3cnc4c(N)ncnc43)[C@H](O)[C@@H]2O)[C@@H](O)[C@H]1O` [ApppppA]: the Ki in assay [1] (setting [4]) was 4.5 ± 0.7 µM.

In the case of `Nc1ncnc2c1ncn2[C@@H]1O[C@H](COP(O)(=S)OP(=O)(O)OP(=O)(O)O)[C@@H](O)[C@H]1O` (some centres unmarked) [ATP-αS], the Ki in assay [1] was determined as 287 ± 73 µM.

The compound `O=P(O)(O)OP(=O)(O)O` [pyrophosphate] gave a Ki in assay [1] of 78 ± 12 µM.

On to `Nc1ncnc2c1ncn2[C@@H]1O[C@H](COP(=O)(O)OP(=O)(O)OP(=O)(O)OC[C@H]2O[C@@H](n3cnc4c(N)ncnc43)[C@H](O)[C@@H]2O)[C@@H](O)[C@H]1O` [ApppA], for which the Ki in assay [1] (setting [4]) was determined as 4.2 ± 0.4 µM.

For the compound `Nc1ncnc2c1ncn2[C@@H]1O[C@H](COP(=O)(O)O)[C@@H](O)[C@H]1O` [AMP], the Ki in assay [1] came to 153 ± 13 µM.

For the compound “Gppp-S-(4-4-fluoro-5,7-dimethyl-4-bora-3a,4a-diaza-s-indacine-3-yl) [GpppBODIPY]”, the “activity of worm NitFhit relative to human Fhit on the substrate (kcat/Km)” value in assay [2] (GpppBODIPY as substrate, % of the activity of human Fhit) turned out to be 109%. Also, in assay [2] (setting [5]), the Km came to 3.7 µM and the turnover number (kcat) came to 2.4 s⁻¹.

For the compound `Nc1ncnc2c1ncn2[C@@H]1O[C@H](COP(=O)(O)OP(=O)(O)OP(=O)(O)OP(=O)(O)OC[C@H]2O[C@@H](n3cnc4c(N)ncnc43)[C@H](O)[C@@H]2O)[C@@H](O)[C@H]1O` [AppppA], the Ki in assay [1] (setting [4]) was 2.7 ± 0.3 µM.

With `Nc1nc(O)c2ncn([C@@H]3O[C@H](COP(=O)(S)OP(=O)(O)OP(=O)(O)O)[C@@H](O)[C@H]3O)c2n1` (some centres unmarked) [GTP-αS], in assay [1], the Ki was found to be 481 ± 27 µM.

For “Appp-S-(4-4-fluoro-5,7-dimethyl-4-bora-3a,4a-diaza-s-indacine-3-yl) [ApppBODIPY]”, in assay [3], the “activity of worm NitFhit relative to human Fhit on the substrate (kcat/Km)” value amounted to 22%.

As usually defined, the Km is the substrate concentration at which the rate is half of its maximum. Usually kcat stands for the maximal rate divided by the concentration of active sites.
